Assay results taken from patent publication EP2002838A1, “Use of aryl and hetaryl amide derivatives as modulators of an EP2 receptor” (Bayer Schering Pharma AG, priority 2007, dated 2008).

Tests used:
Kumulus-Eizell Komplexe = assay: Cumulus expansion test in vitro; format: cell-based, Mäuse; conditions: competition with PGE2
Description: In immaturen weiblichen Mäusen (Stamm : CD1 (ICR) von Charles River) wird in einem Alter von 14-18 Tagen die Follikulogenese durch eine einmalige Gabe (intraperitoneal) von 10 1.E. PMSG (Pregnant Mare Serum Gonadotropine; Sigma G-4877, Lot 68H0909) induziert. 47 - 50 Stunden nach der Injektion werden die Ovarien entnommen und die Kumulus-Eizell Komplexe entnommen. Der Kumulus Komplex ist in diesem Stadium noch nicht expandiert. Die Kumulus-Eizell Komplexe werden nun für 20 - 24 Stunden mit Prostaglandin E2 (PGE2) (0,3 µM), Vehikel Kontrolle (Ethanol) oder Testsubstanzen inkubiert. Medium: alpha- MEM Medium mit 0,1 mM IBMX, Pyruvate (0,23 mM) Glutamine (2 mM), Pen/Strep 100 IU/ml Pen. und 100 µg/ml Strep.) und HSA (8 mg/ml)). Danach wird die Kumulus Expansion durch die Einteilung in vier Stadien (nach Vanderhyden et al. Dev Biol. 1990 Aug;140(2):307-317) festgestellt. Tabelle 1: Beispiel für die biologische Wirksamkeit der erfindungsgemäßen Verbindungen (gemessen mittels cAMP Antagonismustest): […]

[1] = target: T1, EP2-Subtyp des humanen PGE2-Rezeptors (Homo sapiens, UniProt P43116); assay: cAMP antagonism test (cellular, HTRF cAMP detection, PGE2 stimulation); format: cell-based; conditions: cAMP Antagonismustest; in presence of agonist PGE2; read-out: Antagonismus [IC50
T1 construct: host or cells: cells in a culture plate
Description: Die Bindung von PGE2 an den EP2-Subtyp des humanen PGE2-Rezeptors induziert die Aktivierung membranständiger Adenylatzyklasen und führt zur Bildung von cAMP. In Gegenwart des Phosphodiesteraseinhibitors IBMX wird das durch diese Stimulation akkumulierte und mittels Zell-Lyse freigesetzte cAMP in einem kompetitiven Nachweisverfahren eingesetzt. In diesem Test konkurriert das cAMP im Lysat mit cAMP-XL665 um die Bindung eines Eu-Kryptat markierten Anti-cAMP Antikörpers. Dabei entsteht in Abwesenheit von zellulärem cAMP ein maximales Signal, welches auf der Kopplung dieses Antikörpers an das cAMP-XL665 Molekül beruht. Dadurch entsteht nach Anregung bei 337 nm ein auf FRET (fluorescence resonance energy transfer) basierendes, langanhaltendes Emissionssignal bei 665 nm (und bei […]). Beide Signale werden in einem geeigneten Messgerät zeitlich versetzt, d.h. nach Abklingen der Hintergrundsfluoreszenz gemessen. Jegliche Erhöhung des durch Prostglandin-E2-Gabe bedingten niedrigen FRET-Signals (gemessen als Well-Ratio-Veränderung = Emission665nm/Emission620nm * 10000) zeigt die Wirkung von Antagonisten.
Die in einer Testplatte und 30 % DMSO vorgelegten Substanzlösungen (0.75 µl) werden in 16 µl einer KRSB+IBMX-Stimulationslösung gelöst (1 X Krebs-Ringer Bicarbonate Buffer; Sigma-Aldrich # K-4002; inklusive 750 µM 3-Isobutyl-1-methylxanthine Sigma-Aldrich # I-7018), anschließend werden 15 µl davon in eine medienfreie Zellkulturplatte überführt, die kurz zuvor mit KRSB gewaschen worden war.
Nach einer 30-minütigen Vorinkubation bei Raumtemperatur (RT) werden 5 µl einer 4xPGE2 Lösung (11 nM) zugegeben und in Gegenwart des Agonisten für weitere 60 min bei RT inkubiert (Volumen: - 20 µl), bevor die Reaktion anschließend durch Zugabe von 5 µl Lysispuffer gestoppt und für weitere 20 min bei RT inkubiert wird (Volumen: - 25 µl). Das Zell-Lysat wird anschließend in eine Messplatte überführt und entsprechend den Herstellerangaben (cyclic AMP kit Cisbio International # 62AMPPEC) gemessen.

[2] = target: T1, EP2-Subtyp des humanen PGE2-Rezeptors; assay: cAMP agonism test (cellular, HTRF cAMP detection, without PGE2); format: cell-based

T1 sequence (P43116 whole entry): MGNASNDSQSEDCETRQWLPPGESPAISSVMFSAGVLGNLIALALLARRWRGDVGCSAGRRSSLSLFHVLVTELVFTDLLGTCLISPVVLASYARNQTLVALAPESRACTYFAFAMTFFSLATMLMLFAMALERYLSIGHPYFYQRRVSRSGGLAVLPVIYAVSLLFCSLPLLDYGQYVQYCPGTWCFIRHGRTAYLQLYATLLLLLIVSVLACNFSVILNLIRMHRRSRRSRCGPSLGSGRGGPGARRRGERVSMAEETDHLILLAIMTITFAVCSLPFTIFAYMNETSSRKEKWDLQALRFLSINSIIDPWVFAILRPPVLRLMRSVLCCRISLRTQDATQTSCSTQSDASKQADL

| Compound | IC50 [1] [µM] | further results |
| --- | --- | --- |
| Cc1[nH]c2c(F)ccc(C)c2c1CCNC(=O)c1ccc(-c2csnn2)cc1 [Beispiel 21, N-[2-(7-Fluor-2,4-dimethyl-1H-indol-3-yl)-ethyl]-4-[1,2,3]thiadiazol-4-yl-benzamid] |  | Unterdrückung der Kumulus Expansion (Kumulus-Eizell Komplexe; concentration 10µM): 50% |
| CC(C)Oc1ccc2c(=O)c3cc(C(=O)O)ccc3oc2c1 [AH 6809, reference compound] |  | Unterdrückung der Kumulus Expansion (Kumulus-Eizell Komplexe; concentration 100 - 200 µM): ca. 30% |
| Cc1[nH]c2c(F)ccc(C)c2c1CCNC(=O)c1cccc(-c2cccnc2)c1 [Beispiel 20, N-[2-(7-Fluor-2,4-dimethyl-1H-indol-3-yl)-ethyl]-3-pyridin-3-yl-benzamid] | 1.9 |  |
| Cc1[nH]c2c(F)ccc(C)c2c1CCNC(=O)c1ccc(-n2cccc2)cc1 [Beispiel 13, N-[2-(7-Fluor-2,4-dimethyl-1H-indol-3-yl)-ethyl]-4-pyrrol-1-yl-benzamid] | 0.96 |  |
| Cc1[nH]c2c(F)ccc(C)c2c1CCNC(=O)c1cccc(-c2cc[nH]n2)c1 [Beispiel 15, N-[2-(7-Fluor-2,4-dimethyl-1H-indol-3-yl)-ethyl]-3-(1 H-pyrazol-3-yl)-benzamid] | 1 | Inhibition im zellulären Agonismustest [2]: keine Inhibition |
